# Data as given in ChEMBL document CHEMBL4043116, “KBE009: An antimalarial bestatin-like inhibitor of the Plasmodium falciparum M1 aminopeptidase discovered in an Ugi multicomponent reaction-derived peptidomimetic library” (Bioorg Med Chem, 2017).
# Activity calls are given as the source filed them. Unless noted, no cut-off for these calls is given here.
# Columns and labels:
# Plasmodium falciparum [1] = assay: Inhibition of recombinant Plasmodium falciparum M1 aminopeptidase assessed as residual activity at 20 uM using Ala-AMC as substrate pretreated for 30 mins followed by substrate addition by fluorescence assay relative to control
# Plasmodium falciparum [2] = assay: Antimalarial activity against synchronized ring stage of […] Plasmodium falciparum 3D7 infected in human erythrocytes assessed as parasite growth at 25 uM after 72 hrs by YOYO-1 staining based flow cytometric analysis relative to control; assay type: functional
# Plasmodium falciparum [3] = assay: Antimalarial activity against synchronized ring stage of […] Plasmodium falciparum 3D7 infected in human erythrocytes assessed as parasite growth at 25 uM after 48 hrs by Giemsa staining based microscopic analysis; assay type: functional, cell-based
# Erythrocyte = assay: Hemolytic activity against human erythrocytes at 25 uM measured after 48 hrs; assay type: ADME, cell-based
# Plasmodium falciparum [4] = assay: (§1) Antimalarial activity against asynchronized chloroquine-resistant Plasmodium falciparum FcB1/Columbia assessed as reduction in [3H]-hypoxanthine incorporation by measuring parasite growth at 50 uM pretreated for 24 hrs followed by [3H]-hypoxanthine addition after 24 hrs by microbeta scintillation counting analysis relative to control; assay type: functional; parameters: scale not given: the % may be the effect or the level left
# Plasmodium falciparum [5] = assay: as §1, with “5” for “50”; assay type: functional; parameters: scale not given: the % may be the effect or the level left
# Plasmodium falciparum [6] = assay: Inhibition of Plasmodium falciparum M1 aminopeptidase at 200 uM using Ala-AMC as substrate by spectrofluorimetric assay
# [7] = Inhibition of recombinant Plasmodium falciparum M1 aminopeptidase using Ala-AMC as substrate pretreated for 30 mins followed by substrate addition by fluorescence assay
# Plasmodium falciparum [8] = assay: Antimalarial activity against synchronized ring stage of […] Plasmodium falciparum 3D7 infected in human erythrocytes after 48 hrs by Giemsa staining based microscopic analysis; assay type: functional, cell-based
Compound,Activity (Plasmodium falciparum [1]),Activity (Plasmodium falciparum [2]),Activity (Plasmodium falciparum [3]),Activity (Erythrocyte),Activity (Plasmodium falciparum [4]),Activity (Plasmodium falciparum [5]),inhibition (Plasmodium falciparum [6]),Ki [7],inhibition (Plasmodium falciparum [8])
CC(C)C[C@H](NC(C(=O)NC1CCCCC1)c1cccnc1)C(=O)O (some centres undefined),94%,96%,Active,Non-Toxic,–,–,–,–,–
COc1ccc(C(N[C@@H](CC(C)C)C(=O)O)C(=O)NC2CCCCC2)cc1OC (some centres undefined),98%,41%,Active,Non-Toxic,–,–,–,–,–
CC(C)C[C@@H](C(=O)O)N(C(=O)[C@@H](N)Cc1ccccc1)C(C(=O)NC(C)(C)C)c1ccco1 (some centres undefined),42%,96%,Active,Non-Toxic,81.5 - 95%,94.5 - 99%,–,–,–
CC[C@H](C)[C@H](NC(C(=O)NC1CCCCC1)c1ccccc1)C(=O)O (some centres undefined),96%,77%,Active,Non-Toxic,39.5 - 41.5%,84.5 - 92.5%,–,–,–
COc1ccc(C(C(=O)NC(C)(C)C)N(C(=O)[C@@H](N)Cc2ccccc2)[C@@H](CC(C)C)C(=O)O)cc1OC (some centres undefined),48%,95%,Active,Non-Toxic,42.5 - 99%,56 - 99%,–,–,–
CC(C)C[C@@H](C(=O)O)N(CC(=O)NC(C)(C)C)C(=O)[C@@H](N)Cc1ccccc1,97%,45%,Active,Non-Toxic,48.1 - 79.5%,87.5 - 91.5%,–,–,–
CC(C)C[C@@H](C(=O)O)N(C(=O)[C@@H](N)Cc1ccccc1)C(C(=O)NC(C)(C)C)c1ccccc1 (some centres undefined),69%,30%,Active,Non-Toxic,2 - 2.5%,49 - 100%,inactive,–,–
CC(C)C[C@H](N)C(=O)N(CC(=O)NC(C)(C)C)[C@@H](Cc1ccccc1)C(=O)O,61%,87%,Active,Non-Toxic,71 - 83.5%,92.5 - 99%,–,–,–
O=C(NC1CCCCC1)C(c1ccccc1)N1CCC[C@H]1C(=O)O (some centres undefined),100%,90%,Active,Non-Toxic,–,–,–,–,–
O=C(NC1CCCCC1)C(c1cccnc1)N1CCC[C@H]1C(=O)O (some centres undefined),99%,83%,Active,Non-Toxic,–,–,–,–,–
O=C(CN1CCC[C@H]1C(=O)O)NC1CCCCC1,98%,82%,Active,Non-Toxic,–,–,–,–,–
CC(C)C[C@@H](C(=O)O)N(C(=O)[C@@H](N)Cc1ccccc1)C(C(=O)NC(C)(C)C)c1cccnc1 (some centres undefined),64%,86%,Active,Non-Toxic,1 - 11.5%,16 - 99%,–,–,–
O=C(CN[C@@H](Cc1ccccc1)C(=O)O)NCc1ccccc1,23%,38%,Active,Non-Toxic,–,–,–,0.9 µM,Active
